≈ marks a conversion by molar mass, not a printed value. Entries after “also recorded” stand apart in the source; their conditions may differ. Where two headings read alike, the source gives them in different places.
Legend:
[1] = system: Candida albicans ATCC Accession No. 10231; assay: Checkerboard synergy assay with fluconazole; format: cell-based; conditions: for FIC Fluc: average FIC of fluconazole at varying concentrations of the test drug; for FIC Test: average FIC of the test drug at varying concentrations of fluconazole; for Activity (interaction with fluconazole): from FIC index; for FIC Index: sum of the two FICs, <1 synergistic, >=1 antagonistic
Method: Considering that two different modes of activity (cidal and static) were observed depending on the structural motifs present in our analogs, we performed a series of checkerboard assays to determine if representative active compounds were in fact acting in synergy with the azole, fluconazole. Each of these assays tested multiple concentrations of the selected analog in the presence of multiple concentrations of fluconazole. All checkerboard assays were prepared in 96-well plates. 200 μl of previously prepared drug solutions were added to each well in column 2. Using a multichannel pipette, 100 μl from each well in column 2 was serially diluted (1:2) horizontally across the plate, stopping at column 10. Contents of each well were mixed thoroughly. Column 11 was reserved for fluconazole MIC control and contained no other drug. 100 μl of media was added to each well, column 2-10. Each well was mixed thoroughly with a multichannel pipette. 100 μl was then removed and discarded from these wells. 100 μl of previously prepared fluconazole dilution was added to each well in row B. Using a multichannel pipette, 100 μl from each well was serially diluted (1:2) vertically down the plate, stopping at row F. Contents of each well were mixed thoroughly. Row G was reserved for tested drug MIC control and contained no fluconazole. Well G11 contained neither drug and served as a drug-free growth control. The final 100 μl from each well in row F was discarded.
The fungal samples were prepared from glycerol stocks of Candida albicans ATCC Accession No. 10231. The inoculum's concentration was adjusted to a McFarland standard between 0.08 and 0.12. Inoculum was then diluted at a ratio of 1:37.5 in buffered media. 100 μl of inoculum-media solution was added to each well. Following inoculation, the 96-well plates were wrapped in parafilm to prevent evaporation and incubated for overnight at 35° C. After 18 h, the wells showing growth were recorded.
Synergistic activity was determined based on the MIC read from these plates. The fractional inhibitory concentration (FIC) for a given well is the ratio of the minimum inhibitory concentration of one drug A in the presence another drug B to the minimum inhibitory concentration with only drug A. The FIC was calculated for the test drug in each of the wells along the growth/no-growth interface at varying concentrations of fluconazole, then these values were averaged to determine the average FIC for the test drug. The same process was used to calculate the average FIC for fluconazole at varying concentrations of the test drug. The sum of these two FICs gives the FIC index which can be used to determine the synergistic effect between the two drugs (Hsieh et al., Diagn. Microbiol. Infect. Dis. (1993) 16: 343-349). An FIC index value less than 1 indicated synergistic interactions between the two drugs while an FIC index value greater than or equal to 1 indicated antagonistic interactions.

Candida strain TW17 = assay: Time-kill assay; format: cell-based, Candida albicans; conditions: for colonies observed in time-kill assay: after 24 h; for Cidal vs Static: four times the MIC for TW17, 48 h
Method: FIG. 9 illustrates time-kill assays, for representative analogs that were active against the azole-resistant TW17, to determine the cidal or static nature of the analog tested. 100 μl of each sample was spread onto YM agar plates with a sterile bent spreading rod. Plates were incubated at 35° C. overnight and colonies were then counted on each plate.
One of the objectives of this study was to determine the cidal or static nature of the analogs that were active against such as TW17, the azole-resistant clinical isolate. Azoles affect Candida spp. by inhibiting ergosterol biosynthesis, and ultimately prevent their reproduction. This effect has led to the classification of azoles as fungistats. Determining the fungistatic or fungicidal nature of the synthesized compounds of the present disclosure allows a comparison to azoles, in addition to improving the understanding of how the structural motifs might lend toward an alternate mechanism of action. Therefore, time-kill assays were performed using the representative analogs that were active against the azole-resistant TW17 at concentrations at or below 8 μg/mL.
Solid drugs were dissolved in DMSO to a concentration of 10 mg/ml. This stock solution was then further diluted in water to the desired experimental concentration, determined to be four times that of the MIC for the Candida strain TW17 (as reported in the Tables).
Individual colonies of TW17 were suspended in 5 ml of sterile water and adjusted to achieve a McFarland reading between 0.08 and 0.12. The inoculum was then further diluted in sterile water at a ratio of 1:100. Three […] tissue culture tubes were prepared by combining 2.5 ml of above diluted inoculum, 21.7 ml of HEPES buffered RPMI-1640 media, and 800 μl of experimental drug dilution. A “Growth Control” tube was prepared by combining 2.5 ml of inoculum, 21.7 HEPES buffered RPMI-1640 media, and 800 μl of water-DMSO solution equal to the DMSO concentration of the experimental drug dilution. A “Sterile Control” tube was prepared by combining 24.2 ml of HEPES-buffered RPMI-1640 media and 800 μl of water-DMSO solution as in the “Growth Control”. All tubes were incubated for 48 hours at 35° C., 50 rpm. 500 μl samples were taken from the tubes at time points of predetermined intervals during this incubation.
Time points for the “Kill-Curve” and “Growth Control” tubes were taken at 0, 1, 2, 4, 6, 8, 24, and 48 h after the start of incubation. Time points for “Sterile Control” were taken at 0 and 48 hours. Each time point sample was serially diluted 1:10 in sterile 0.9% NaCl solution up to 5 times. 100 μl of each sample was spread onto YM agar plates with a sterile bent spreading rod. Plates were incubated at 35° C. overnight and colonies were then counted on each plate. Colonies on plates from diluted time points were used to estimate uncountable undiluted samples. The number of colonies in undiluted samples was estimated to be 10^n times greater than the diluted sample, where n was the number of dilutions made.

[2] = system: C. albicans clinical isolate 17 (TW17); assay: MIC80 fungal growth inhibition, clinical isolate TW17; format: cell-based, Candida albicans; conditions: for MIC80: Candida albicans, read-out: MIC80 TW17
Method: The antifungal activity of the pyridinohydrazide and hydrazomethylpyridine derivatives described in the s were evaluated in vitro using Candida albicans (ATCC Accession No. 10231) and Candida glabrata (ATCC Accession No. 48435). In addition, the compounds were evaluated for activity against two previously-described clinical isolates of C. albicans known to have developed azole-resistance. These isolates were obtained over a two year period from a single AIDS patient and the development of the azole-resistance mechanisms have been extensively characterized (White T C. Antimicrob. Agents Chemother. (1997) 41: 1482-1487). MIC assays were performed on the clinical isolates 1 and 17 (annotated TW1 and TW17, respectively), where isolate 1 was used as an azole-susceptible control and isolate 17 was considered azole-resistant. All assays were done in accordance with NCCLS reference documents (Clinical Laboratory and Standards Institute. Reference method for Broth Dilution Antifungal Susceptibility Testing of Yeasts: Approved Standard. M27-A3 2010; 28). The results of these screenings are summarized in Tables 1-9 (Examples 20-27) as the minimum concentrations that inhibited more than 80% of fungal growth (MIC80) as compared to positive controls containing 1% DMSO. Assays were performed in HEPES-buffered RPMI-1640 media. All MIC screens used a visual scoring method as opposed to spectroscopic analysis, due to the altered absorbance spectra of many of the compounds.

[3] = Azole-resistant, >80% growth inhibition, visual scoring

Structure (SMILES) | FIC Fluc [1] | FIC Test [1] | Activity (interaction with fluconazole) [1] | FIC Index [1] | colonies observed in time-kill assay (Candida strain TW17) | Cidal vs Static (Candida strain TW17) | MIC80 [2, 3] | MIC80 [2] | MIC80 TW17 [2, 3]
C(=N\Nc1ccccc1)/c1cccnc1 [AR44] | 1.00 | 0.90 | Antagonistic | 1.90 | no observed colonies | fungicidal; also recorded: Cidal | 8 µg/mL (≈ 40.6 µM) |  | 
C(=N\Nc1ccccc1)/c1ccncc1 [AR48] | 3.87 | 0.80 | Antagonistic | 4.67 | no observed colonies | fungicidal; also recorded: Cidal |  | 8 µg/mL (≈ 40.6 µM) | 
O=C(N/N=C/c1cc(Br)ccc1O)c1ccc[n+]([O-])c1 [AR27] | 0.92 | 1.00 | Antagonistic | 1.92 |  | fungistatic; also recorded: Static | 8 µg/mL (≈ 23.8 µM) |  | 
O=C(NN=Cc1cc([N+](=O)[O-])ccc1O)c1cccnc1 [AR12] | 1.00 | 1.00 | Antagonistic | 2.00 |  | Static |  |  | 8 µg/mL (≈ 27.9 µM)
Cc1ccc(O)c(/C=N/NC(=O)c2ccccn2)c1 [AR2, (E)-N′-(2-Hydroxy-5-methylbenzylidene)picolinohydrazide] | 1.00 | 1.00 | Antagonistic | 2.00 |  | Static | 8 µg/mL (≈ 31.3 µM) |  | 
O=C(NN=Cc1cc([N+](=O)[O-])ccc1O)c1ccncc1 [AR18] | 1.00 | 1.00 | Antagonistic | 2.00 |  | Static |  |  | 8 µg/mL (≈ 27.9 µM)
